{"source": "patent US9976122B2", "about": "“Methods and compositions for generating an immune response by inducing CD40 and pattern recognition receptor adapters” (BAYLOR COLLEGE OF MEDICINE, priority 2008, dated 2018)", "molecules": {"B1": {"name": "CD40L: CD40 ligand, a TNF family member that binds to the CD40 receptor (protein)", "chain": "MIETYNQTSPRSAATGLPISMKIFMYLLTVFLITQMIGSALFAVYLHRRLDKIEDERNLHEDFVFMKTIQRCNTGERSLSLLNCEEIKSQFEGFVKDIMLNKEETKKENSFEMQKGDQNPQIAAHVISEASSKTTSVLQWAEKGYYTMSNNLVTLENGKQLTVKRQGLYYIYAQVTFCSNREASSQAPFIASLCLKSPGRFERILLRAANTHSSAKPCGQQSIHLGGVFELQPGASVFVNVTDPSQVSHGTGFTSFGLLKL"}}, "key": {"[1]": {"tested_on": "Naïve CD4+CD45RA+ T cells", "format": "cell-based, human", "settings": "restimulated with TTp30 at day 7"}, "[2]": {"tested_on": "human SOCS1", "assay": "Real time Q-PCR assay for human SOCS1 in DCs", "format": "cell-based", "settings": "stimulus by itself", "source_text": "Total RNA was purified and reverse transcribed with random hexamers using SuperScript II RTase (Invitrogen, Carlsbad, Calif.). mRNA levels were quantified in DCs by subjecting cDNA to TaqMan PCR analysis using the GeneAmp 5700 Sequence Detection System (Applied Biosystems, Foster City, Calif.). Pre-developed sequence detection reagents (Applied Biosystems) specific for human SOCS1 and 18S rRNA, including forward and reverse primers as well as a fluorogenic TaqMan FAM-labeled hybridization probe, were supplied as mixtures and were used at 1 microliter/20 microliter PCR. Samples were run in duplicates. The level of SOCS1 expression in each sample was normalized to the level of 18S rRNA from the same sample using the comparative 2-delta delta CT method (Livak K J, Schmittgen T D. Analysis of relative gene expression data using real-time quantitative PCR and the 2(-Delta Delta C(T)) Method. Methods. 2001; 25:402-408).\nFinally, the induction of the suppressor of cytokine signaling (SOCS1) was evaluated."}, "[3]": {"tested_on": "human DCs", "assay": "Cytokine ELISA (IL-12p70, IL-6) of culture supernatants of human monocyte-derived DCs", "format": "cell-based", "settings": "LPS and CD40L-stimulated DCs"}}}
{"molecule": "monophosphoryl lipid A [MPL]", "values": [{"measurement": "IFN-gamma production in CD4+ T cells", "setting": "[1]", "value": "not induced"}]}
{"molecule": "Lipopolysaccharide [LPS]", "values": [{"measurement": "SOCS1 induction in DCs", "setting": "[2]", "value": "up-regulated"}]}
{"molecule": "B1", "values": [{"measurement": "IL-12p70 expression after removal of LPS stimulation", "setting": "[3]", "value": "ceased when LPS stimulation was removed"}]}
